According to ChEMBL document CHEMBL1743341, “Cytochrome p450 enzymes mechanism based inhibitors: common sub-structures and reactivity” (Curr Drug Metab, 2005):

Tests used:
Cytochrome P450 3A4 [1] = target: T1, Cytochrome P450 3A4 (Homo sapiens, UniProt P08684); test: Mechanism based inhibition of human cytochrome P450 3A4 measured by transformation of triazolam into its alpha-hydroxy and 4-hydroxy metabolites; type: ADME
Cytochrome P450 3A5 [2] = target: T2, Cytochrome P450 3A5 (Homo sapiens, UniProt P20815); test: (§1) Mechanism based inhibition of human cytochrome P450 3A5 measured by testosterone hydroxylation; type: ADME
CYP3A5 [3] = target: T3, CYP3A5 (Homo sapiens, UniProt P20815); test: as §1; type: ADME; details: human, probe testosterone (hydroxylation)
Cytochrome P450 3A4 [4] = target: T1, Cytochrome P450 3A4; test: (§2) Mechanism based inhibition of human cytochrome P450 3A4 measured by testosterone hydroxylation; type: ADME
CYP3A4 = CYP3A4 (Homo sapiens, UniProt P08684); test: as §2; type: ADME; details: human, probe testosterone (hydroxylation)
Cytochrome P450 2D6 [5] = target: T4, Cytochrome P450 2D6 (Homo sapiens, UniProt P10635); test: Mechanism based inhibition of human cytochrome P450 2D6, partition ratio; type: ADME
CYP2D6 = CYP2D6 (Homo sapiens, UniProt P10635); test: (§3) Mechanism based inhibition of human cytochrome P450 2D6 measured by dextromethorphan O-demethylation; type: ADME; details: human, probe dextromethorphan
Cytochrome P450 2D6 [6] = target: T4, Cytochrome P450 2D6; test: as §3; type: ADME
Cytochrome P450 2B1 [7] = target: T5, Cytochrome P450 2B1 (Rattus norvegicus, UniProt P00176); test: (§4) Mechanism based inhibition of rat cytochrome P450 2B1; type: ADME
T5 sequence (P00176 whole entry): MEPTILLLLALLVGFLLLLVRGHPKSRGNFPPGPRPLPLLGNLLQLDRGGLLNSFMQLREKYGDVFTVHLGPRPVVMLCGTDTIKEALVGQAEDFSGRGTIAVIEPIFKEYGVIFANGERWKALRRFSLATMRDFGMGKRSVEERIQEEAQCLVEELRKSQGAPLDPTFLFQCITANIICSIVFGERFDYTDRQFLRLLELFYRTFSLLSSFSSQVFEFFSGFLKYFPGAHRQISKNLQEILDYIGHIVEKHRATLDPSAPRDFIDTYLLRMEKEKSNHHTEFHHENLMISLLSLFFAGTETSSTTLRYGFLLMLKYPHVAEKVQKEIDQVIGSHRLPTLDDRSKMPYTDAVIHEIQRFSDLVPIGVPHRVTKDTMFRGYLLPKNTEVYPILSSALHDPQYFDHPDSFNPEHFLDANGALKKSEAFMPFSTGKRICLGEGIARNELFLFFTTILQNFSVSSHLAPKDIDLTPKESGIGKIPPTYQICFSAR

CYP2B1 = target: T6, CYP2B1 (Rattus norvegicus, UniProt P00176); test: as §4; type: ADME; details: rat
T6 sequence (P00176 whole entry): T5 sequence (P00176 whole entry)

Cytochrome P450 2B1 [8] = target: T5, Cytochrome P450 2B1; test: Mechanism based inhibition of rat cytochrome P450 2B1, partition ratio; type: ADME
Cytochrome P450 2B6 [9] = target: T7, Cytochrome P450 2B6 (Homo sapiens, UniProt P20813); test: Mechanism based inhibition of human cytochrome P450 2B6, partition ratio; type: ADME
T7 sequence (P20813 whole entry): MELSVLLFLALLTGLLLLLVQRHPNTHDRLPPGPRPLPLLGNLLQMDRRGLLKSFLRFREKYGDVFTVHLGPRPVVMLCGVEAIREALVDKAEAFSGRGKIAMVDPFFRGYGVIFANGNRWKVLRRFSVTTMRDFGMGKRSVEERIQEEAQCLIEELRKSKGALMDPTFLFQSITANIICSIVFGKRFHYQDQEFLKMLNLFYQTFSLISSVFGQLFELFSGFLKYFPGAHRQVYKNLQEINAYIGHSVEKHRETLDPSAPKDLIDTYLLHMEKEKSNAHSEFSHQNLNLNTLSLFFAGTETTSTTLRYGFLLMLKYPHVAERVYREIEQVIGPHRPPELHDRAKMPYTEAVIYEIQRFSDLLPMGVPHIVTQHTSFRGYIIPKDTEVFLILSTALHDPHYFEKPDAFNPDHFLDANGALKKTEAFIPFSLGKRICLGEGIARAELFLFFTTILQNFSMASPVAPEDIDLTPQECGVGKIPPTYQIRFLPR

Cytochrome P450 2C9 [10] = target: T8, Cytochrome P450 2C9 (Homo sapiens, UniProt P11712); test: (§5) Mechanism based inhibition of human cytochrome P450 2C9; type: ADME
Cytochrome P450 2B6 [11] = target: T7, Cytochrome P450 2B6; test: (§6) Mechanism based inhibition of human cytochrome P450 2B6; type: ADME
CYP2B6 = target: T9, CYP2B6 (Homo sapiens, UniProt P20813); test: as §6; type: ADME; details: human
T9 sequence (P20813 whole entry): T7 sequence (P20813 whole entry)

Cytochrome P450 2B1 [12] = target: T5, Cytochrome P450 2B1; test: Mechanism based inhibition of rat cytochrome P450 2B1 measured by 7-ethoxyresorufin O-deethylation (EROD); type: ADME
Cytochrome P450 3A4 [13] = target: T1, Cytochrome P450 3A4; test: Mechanism based inhibition of human cytochrome P450 3A4 measured by midazolam hydroxylase activity; type: ADME
CYP2C9 = CYP2C9 (Homo sapiens, UniProt P11712); test: as §5; type: ADME; details: human
Cytochrome P450 2C9 [14] = target: T8, Cytochrome P450 2C9; test: Mechanism based inhibition of human cytochrome P450 2C9, partition ratio; type: ADME
Cytochrome P450 3A4 [15] = target: T1, Cytochrome P450 3A4; test: Mechanism based inhibition of human cytochrome P450 3A4 measured by testosterone 6-beta hydroxylation; type: ADME
Cytochrome P450 3A6 [16] = target: T10, Cytochrome P450 3A6 (Oryctolagus cuniculus, UniProt P11707); test: Mechanism based inhibition of rabbit cytochrome P450 3A6, partition ratio; type: ADME
Cytochrome P450 3A6 [17] = target: T10, Cytochrome P450 3A6; test: Mechanism based inhibition of rabbit cytochrome P450 3A6 measured by testosterone and progesterone 6-beta hydroxylation; type: ADME
Cytochrome P450 3A5 [18] = target: T2, Cytochrome P450 3A5; test: (§7) Mechanism based inhibition of human cytochrome P450 3A5; type: ADME
CYP3A5 [19] = target: T3, CYP3A5; test: as §7; type: ADME; details: human
Cytochrome P450 3A4 [20] = target: T1, Cytochrome P450 3A4; test: Mechanism based inhibition of human cytochrome P450 3A4 measured by testosterone 6-beta hydroxylation and erythromycin N-demethylation; type: ADME
CYP2E1 = CYP2E1 (Homo sapiens, UniProt P05181); test: (§8) Mechanism based inhibition of human cytochrome P450 2E1 measured in vivo; type: ADME, organism-based; details: human, in vivo
Cytochrome P450 2E1 = Cytochrome P450 2E1 (Homo sapiens, UniProt P05181); test: as §8; type: ADME, organism-based
CYP2B4 = target: T11, CYP2B4 (Oryctolagus cuniculus, UniProt P00178); test: (§9) Mechanism based inhibition of rabbit cytochrome P450 2B4; type: ADME; details: rabbit
T11 sequence (P00178 whole entry): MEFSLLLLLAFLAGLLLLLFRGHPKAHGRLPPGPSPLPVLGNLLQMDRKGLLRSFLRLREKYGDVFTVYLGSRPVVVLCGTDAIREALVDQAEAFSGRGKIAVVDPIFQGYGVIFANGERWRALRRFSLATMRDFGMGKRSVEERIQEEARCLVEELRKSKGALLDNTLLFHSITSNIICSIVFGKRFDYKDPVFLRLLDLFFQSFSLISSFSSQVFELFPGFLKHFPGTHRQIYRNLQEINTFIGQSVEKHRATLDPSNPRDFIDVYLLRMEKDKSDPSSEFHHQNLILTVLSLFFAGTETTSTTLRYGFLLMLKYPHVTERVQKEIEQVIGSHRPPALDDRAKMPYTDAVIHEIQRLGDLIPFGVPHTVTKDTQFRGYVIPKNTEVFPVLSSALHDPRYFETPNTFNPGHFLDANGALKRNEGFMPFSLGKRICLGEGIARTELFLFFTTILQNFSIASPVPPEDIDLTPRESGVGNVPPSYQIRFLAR

Cytochrome P450 2B4 = target: T12, Cytochrome P450 2B4 (Oryctolagus cuniculus, UniProt P00178); test: as §9; type: ADME
T12 sequence (P00178 whole entry): T11 sequence (P00178 whole entry)

Cytochrome P450 3A5 [21] = target: T2, Cytochrome P450 3A5; test: Mechanism based inhibition of human cytochrome P450 3A5, partition ratio; type: ADME

T2 sequence (P20815 whole entry): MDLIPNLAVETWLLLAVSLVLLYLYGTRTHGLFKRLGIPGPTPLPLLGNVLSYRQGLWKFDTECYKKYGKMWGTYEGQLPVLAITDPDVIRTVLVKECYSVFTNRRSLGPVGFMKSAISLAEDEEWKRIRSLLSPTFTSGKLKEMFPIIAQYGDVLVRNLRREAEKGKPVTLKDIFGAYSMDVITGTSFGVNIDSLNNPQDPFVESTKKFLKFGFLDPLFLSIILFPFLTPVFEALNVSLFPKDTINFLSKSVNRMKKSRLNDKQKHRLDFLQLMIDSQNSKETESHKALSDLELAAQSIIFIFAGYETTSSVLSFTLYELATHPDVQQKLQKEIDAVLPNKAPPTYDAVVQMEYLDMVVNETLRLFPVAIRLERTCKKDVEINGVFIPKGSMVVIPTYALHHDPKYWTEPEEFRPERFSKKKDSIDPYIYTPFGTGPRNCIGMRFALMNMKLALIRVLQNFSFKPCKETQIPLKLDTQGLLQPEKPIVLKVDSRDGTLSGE
T1 sequence (P08684 whole entry): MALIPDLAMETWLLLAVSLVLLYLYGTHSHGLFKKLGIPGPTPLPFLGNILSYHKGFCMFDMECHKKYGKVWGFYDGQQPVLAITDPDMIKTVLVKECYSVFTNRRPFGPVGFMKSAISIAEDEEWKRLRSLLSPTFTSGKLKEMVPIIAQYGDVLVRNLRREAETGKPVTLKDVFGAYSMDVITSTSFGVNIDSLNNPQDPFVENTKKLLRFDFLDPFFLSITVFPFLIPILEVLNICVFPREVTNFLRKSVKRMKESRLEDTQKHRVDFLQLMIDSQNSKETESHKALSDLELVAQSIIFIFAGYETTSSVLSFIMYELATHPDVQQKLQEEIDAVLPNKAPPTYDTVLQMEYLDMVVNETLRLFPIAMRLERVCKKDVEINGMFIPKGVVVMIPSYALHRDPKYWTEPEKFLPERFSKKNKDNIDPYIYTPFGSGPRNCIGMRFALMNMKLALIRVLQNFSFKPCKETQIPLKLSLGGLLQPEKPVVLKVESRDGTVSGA
T8 sequence (P11712 whole entry): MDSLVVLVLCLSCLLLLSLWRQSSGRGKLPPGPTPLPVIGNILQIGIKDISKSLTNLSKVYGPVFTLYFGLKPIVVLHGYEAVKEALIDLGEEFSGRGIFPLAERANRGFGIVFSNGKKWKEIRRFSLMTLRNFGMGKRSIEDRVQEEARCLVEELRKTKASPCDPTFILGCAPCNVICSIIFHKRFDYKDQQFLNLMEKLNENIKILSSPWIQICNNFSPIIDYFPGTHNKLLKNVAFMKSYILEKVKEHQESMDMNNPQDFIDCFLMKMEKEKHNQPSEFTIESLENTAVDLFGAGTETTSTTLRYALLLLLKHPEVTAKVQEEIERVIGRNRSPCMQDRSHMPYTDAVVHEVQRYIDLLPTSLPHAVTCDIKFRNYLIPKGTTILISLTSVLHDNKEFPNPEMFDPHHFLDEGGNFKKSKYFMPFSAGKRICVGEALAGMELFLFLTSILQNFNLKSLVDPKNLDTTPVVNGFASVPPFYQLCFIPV
T10 sequence (P11707 whole entry): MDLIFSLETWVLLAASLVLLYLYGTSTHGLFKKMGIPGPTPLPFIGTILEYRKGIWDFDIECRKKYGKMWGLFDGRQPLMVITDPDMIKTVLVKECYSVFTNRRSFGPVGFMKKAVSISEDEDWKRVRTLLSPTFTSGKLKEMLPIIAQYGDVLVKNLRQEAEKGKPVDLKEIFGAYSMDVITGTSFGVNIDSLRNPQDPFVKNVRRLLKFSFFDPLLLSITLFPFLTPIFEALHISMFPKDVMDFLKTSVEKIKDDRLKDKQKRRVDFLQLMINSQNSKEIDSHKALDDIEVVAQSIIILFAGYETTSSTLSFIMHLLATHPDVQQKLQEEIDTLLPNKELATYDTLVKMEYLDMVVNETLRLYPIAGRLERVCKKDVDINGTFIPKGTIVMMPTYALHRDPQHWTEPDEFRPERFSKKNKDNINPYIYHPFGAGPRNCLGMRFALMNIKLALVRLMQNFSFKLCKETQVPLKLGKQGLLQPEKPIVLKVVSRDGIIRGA
T3 sequence (P20815 whole entry): as the sequence (P20815 whole entry) above
T4 sequence (P10635 whole entry): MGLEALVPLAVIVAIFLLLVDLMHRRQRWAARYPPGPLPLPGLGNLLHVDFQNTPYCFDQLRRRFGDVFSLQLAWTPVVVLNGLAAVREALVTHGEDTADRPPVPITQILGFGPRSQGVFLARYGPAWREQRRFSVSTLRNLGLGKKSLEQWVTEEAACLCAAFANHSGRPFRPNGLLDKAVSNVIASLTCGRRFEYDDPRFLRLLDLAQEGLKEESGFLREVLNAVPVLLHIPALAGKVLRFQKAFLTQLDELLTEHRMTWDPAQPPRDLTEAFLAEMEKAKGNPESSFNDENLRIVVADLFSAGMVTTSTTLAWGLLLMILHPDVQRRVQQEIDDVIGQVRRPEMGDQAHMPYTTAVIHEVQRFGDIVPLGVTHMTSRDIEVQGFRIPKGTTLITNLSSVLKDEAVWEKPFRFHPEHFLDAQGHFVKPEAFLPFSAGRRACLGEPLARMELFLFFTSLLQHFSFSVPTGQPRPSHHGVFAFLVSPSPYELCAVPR
CYP2D6, sequence (P10635 whole entry): as above
CYP3A4, sequence (P08684 whole entry): as the sequence (P08684 whole entry) above
Cytochrome P450 2E1, sequence (P05181 whole entry): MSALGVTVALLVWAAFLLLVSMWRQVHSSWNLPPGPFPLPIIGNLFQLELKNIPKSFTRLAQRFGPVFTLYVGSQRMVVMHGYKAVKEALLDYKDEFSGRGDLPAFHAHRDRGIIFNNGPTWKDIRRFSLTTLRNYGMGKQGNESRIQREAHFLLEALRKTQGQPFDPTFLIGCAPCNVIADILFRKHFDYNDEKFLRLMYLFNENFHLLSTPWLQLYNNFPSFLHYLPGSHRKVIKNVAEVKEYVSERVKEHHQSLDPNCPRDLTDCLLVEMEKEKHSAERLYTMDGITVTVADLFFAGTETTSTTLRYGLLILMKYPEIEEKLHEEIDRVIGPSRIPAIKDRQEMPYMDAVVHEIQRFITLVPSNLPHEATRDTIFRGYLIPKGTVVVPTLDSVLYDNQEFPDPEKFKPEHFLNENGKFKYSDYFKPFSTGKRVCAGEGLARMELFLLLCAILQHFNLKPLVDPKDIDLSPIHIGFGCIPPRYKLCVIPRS
CYP2E1, sequence (P05181 whole entry): as above
CYP2C9, sequence (P11712 whole entry): as the sequence (P11712 whole entry) above

SMILES: CC(C)CN(C[C@@H](O)[C@H](Cc1ccccc1)NC(=O)O[C@H]1CCOC1)S(=O)(=O)c1ccc(N)cc1
- mechanism based inhibition (Cytochrome P450 3A4 [1]): Cytochrome P450 mechanistic inhibitor: PMID 10952482
- Ki (Cytochrome P450 3A5 [2]): 200 nM
- kinact (CYP3A5 [3]): 0.00583 s⁻¹
- Ki (Cytochrome P450 3A4 [4]): 260 nM
- kinact (CYP3A4): 0.0122 s⁻¹

SMILES: CCc1nc(C)c(CN2CCN(c3cc(C(F)(F)F)ccn3)CC2)[nH]1
- Partition ratio (Cytochrome P450 2D6 [5]): 99
- kinact (CYP2D6): 0.0015 s⁻¹
- Ki (Cytochrome P450 2D6 [6]): 5.5 µM

SMILES: CC(C)(c1ccccc1)N1CCCCC1
- Ki (Cytochrome P450 2B1 [7]): 12 µM
- kinact (CYP2B1): 0.005 s⁻¹
- Partition ratio (Cytochrome P450 2B1 [8]): 31
- Partition ratio (Cytochrome P450 2B6 [9]): 15
- mechanism based inhibition (Cytochrome P450 2C9 [10]): Cytochrome P450 mechanistic inhibitor: PMID 10901701
- Ki (Cytochrome P450 2B6 [11]): 1.2 µM
- kinact (CYP2B6): 0.00117 s⁻¹

SMILES: C#CCCCc1ccccc1
- mechanism based inhibition (Cytochrome P450 2B1 [12]): Cytochrome P450 mechanistic inhibitor: PMID 9760279

SMILES: CNCCN1C(=O)[C@H](OC(C)=O)[C@H](c2ccc(OC)cc2)Sc2ccccc21
- mechanism based inhibition (Cytochrome P450 3A4 [13]): Cytochrome P450 mechanistic inhibitor: PMID 10454485

SMILES: CC(C(=O)O)c1ccc(C(=O)c2cccs2)cc1 (racemic) [SUPROFEN]
- Ki (Cytochrome P450 2C9 [10]): 3.7 µM
- kinact (CYP2C9): 0.00152 s⁻¹
- Partition ratio (Cytochrome P450 2C9 [14]): 101

SMILES: O=c1cc(-c2ccccc2)oc2c1ccc1ccccc12 [ALPHA-NAPHTHOFLAVONE]
- mechanism based inhibition (Cytochrome P450 3A4 [15]): Cytochrome P450 mechanistic inhibitor: PMID 11640917
- Partition ratio (Cytochrome P450 3A6 [16]): 21
- Ki (Cytochrome P450 3A6 [17]): 80.1 µM

SMILES: CC(C)=CCC/C(C)=C/COc1c2ccoc2cc2oc(=O)ccc12 [BERGAMOTTIN]
- Ki (Cytochrome P450 3A5 [18]): 20 µM
- kinact (CYP3A5 [19]): 0.00075 s⁻¹
- Ki (Cytochrome P450 2B1 [7]): 2.4 µM
- kinact (CYP2B1): 0.000817 s⁻¹
- mechanism based inhibition (Cytochrome P450 3A4 [15]): Cytochrome P450 mechanistic inhibitor: PMID 10859150
- Partition ratio (Cytochrome P450 2B6 [9]): 2
- Ki (Cytochrome P450 3A4 [20]): 7.7 µM
- kinact (CYP2E1): 0.00133 s⁻¹
- Ki (Cytochrome P450 2E1): 40 µM
- Ki (Cytochrome P450 2B6 [11]): 5.2 µM
- kinact (CYP2B6): 0.00145 s⁻¹
- kinact (CYP2B4): 0.00113 s⁻¹
- Ki (Cytochrome P450 2B4): 2800 nM
- Partition ratio (Cytochrome P450 3A5 [21]): 20
